Measured values: US9469863B2, “Aminoglycoside antibiotics, process for producing the same, and pharmaceutical use thereof” (MEIJI SEIKA KAISHA, LTD., priority 2007, dated 2016)
Converted amounts (≈) assume the structure as drawn.

How the values were obtained:
[1] = system: Enterococcus faecalis ATCC29212; experiment: Antimicrobial activity, MIC by agar dilution method; assay type: cell-based; conditions: Mueller-Hinton agar, 37° C., 18 to 20 hr
Experimental: (§1) The antimicrobial activity of 2-hydroxykanamycin B and 2-hydroxykanamycin C was measured as the minimum inhibitory concentration (MIC) by an agar dilution method. Test bacteria which had been cultivated overnight in a growth medium were adjusted to 10^6 cells/ml, and one platinum loop thereof was inoculated in a Mueller-Hinton agar medium containing 2-hydroxykanamycin B or 2-hydroxykanamycin C (manufactured by Difco Laboratories Inc.), followed by cultivation at 37° C. for 18 to 20 hr.

[2] = system: Acinetobacter calcoaceticus ATCC23055; experiment: as above; assay type: cell-based; conditions: Mueller-Hinton agar, 37° C., 18 to 20 hr
Experimental: as §1

[3] = system: Enterococcus faecium ATCC19434; experiment: as above; assay type: cell-based; conditions: Mueller-Hinton agar, 37° C., 18 to 20 hr
Experimental: as §1

[4] = system: Pseudomonas aeruginosa PA01; experiment: as above; assay type: cell-based; conditions: Mueller-Hinton agar, 37° C., 18 to 20 hr
Experimental: as §1

[5] = system: Salmonella typhimurium ATCC13311; experiment: as above; assay type: cell-based; conditions: Salmonella enterica, Mueller-Hinton agar, 37° C., 18 to 20 hr
Experimental: as §1

[6] = system: Escherichia coli ATCC25922; experiment: as above; assay type: cell-based; conditions: Mueller-Hinton agar, 37° C., 18 to 20 hr
Experimental: as §1

[7] = system: Staphylococcus epidermidis ATCC14990; experiment: as above; assay type: cell-based; conditions: Mueller-Hinton agar, 37° C., 18 to 20 hr
Experimental: as §1

[8] = system: Staphylococcus aureus 209P JC-1; experiment: as above; assay type: cell-based; conditions: Mueller-Hinton agar, 37° C., 18 to 20 hr
Experimental: as §1

[9] = system: Staphylococcus aureus ATCC29213; experiment: as above; assay type: cell-based; conditions: Mueller-Hinton agar, 37° C., 18 to 20 hr
Experimental: as §1

[10] = system: Bacillus subtilis ATCC6633; experiment: as above; assay type: cell-based; conditions: Mueller-Hinton agar, 37° C., 18 to 20 hr
Experimental: as §1

[11] = Physicochemical properties: solubility

Row | MIC [1] [µg/mL] | MIC [2] [µg/mL] | MIC [3] [µg/mL] | MIC [4] [µg/mL] | MIC [5] [µg/mL] | MIC [6] [µg/mL] | MIC [7] [µg/mL] | MIC [8] [µg/mL] | MIC [9] [µg/mL] | MIC [10] [µg/mL] | Solubility ([11]; in chloroform) | Solubility ([11]; in ethyl acetate) | Solubility ([11]; in water) | SMILES
1 | 64 (≈ 128 µM) | 1 (≈ 2 µM) | 64 (≈ 128 µM) | 128 (≈ 256 µM) | 1 (≈ 2 µM) | 4 (≈ 8.01 µM) | 1 (≈ 2 µM) | 2 (≈ 4 µM) | 2 (≈ 4 µM) | 0.5 (≈ 1 µM) | insoluble | insoluble | soluble | NCC1OC(OC2C(N)C(O)C(N)C(OC3OC(CO)C(O)C(N)C3O)C2O)C(N)C(O)C1O (centres unmarked) [2-Hydroxykanamycin B, 2-hydroxykanamycin B]
2 | > 128 | 32 (≈ 63.9 µM) | > 128 | > 128 | 32 (≈ 63.9 µM) | 128 (≈ 256 µM) | 32 (≈ 63.9 µM) | 128 (≈ 256 µM) | 128 (≈ 256 µM) | 16 (≈ 32 µM) | insoluble | insoluble | soluble | NC1C(O)C(CO)OC(OC2C(N)C(O)C(N)C(OC3OC(CO)C(O)C(O)C3N)C2O)C1O (centres unmarked) [2-Hydroxykanamycin C, 2-hydroxykanamycin C]
